The values below come from US8658677B2, “Pyridyl-2-methylamino compounds, compositions and uses thereof” (Aria Neurosciences Inc., priority 2011, dated 2014).

In data set [1] the test system is APP. Nature of the data set: Acute treatment experiment: brain soluble Aβ40, APP, C99 and C83. Type of data set: in vivo, mice. The conditions noted are these: five days ip, ARN2966 50 mg/kg/day, Compound E 3 mg/kg/day. The method, then: Furthermore, we conducted an acute treatment experiment where six months old female APPSW/PS1dE9 mice (n=3/group) were treated for five days with ARN2966 (50 mg/kg/day), Compound E (3 mg/kg/day) or Vehicle injected intraperitoneally. Mice were killed three hours after the last injections. The level of soluble Aβ40 was measured in the brain aliquots following diethylamine (DEA) extraction. It was lower in ARN2966 and Compound E treated groups by 39% (p<0.05) and 60% (p<0.05) comparing to vehicle treated mice, respectively (p<0.05; FIG. 6E).
(§1) FIGS. 6.(A, B) ARN2966 treatment reduces load of Aβ plaques (n=10 ARN2966, n=15 Vehicle). (B) Representative photomicrograph of Th-S stained brain sections from vehicle and ARN2966 treated 10 month old, female APPSW/PS1dE9reveal a difference in the load of Aβ plaques. […] (D) Reduced Aβ40 and Aβ42 levels in FA extracted brain homogenate, which represent the total brain content of Aβ peptides in ARN2966 treated animals (ELISA). (E) Reduced soluble Aβ40 level in DEA extracted brain homogenate, of ARN2966 and Compound E treated mice (ELISA). […] Aβ concentrations in (C) (D) and (E) are given per gram of wet brain. All values are given as mean±SEM. Statistical analysis was done using two-tailed unpaired t-test, following confirmation of normal distribution of data using Shapiro-Wilk test.

Data set [2] relates to M17 neuroblastoma cells. The experiment in a line: Rescue of M17 neuroblastoma cells from death induced by MPP+ and H2O2 (MTT). Type of data set: cell-based. An excerpt:
Cell viability was detected by MTT assay.

Data set [3] has as its system APPSW/PS1dE9 mice. The experiment in a line: In vivo toxicity during four-month treatment. The conditions noted are these: 50 mg/kg/day ip, age six to ten months. The protocol: (§2) Female APPSW/PS1dE9 mice received ARN2966 (n=10) or Vehicle (n=15) from the age of six to ten months. ARN2966 (50 mg/kg/day) was given once a day by intraperitoneal injection. […] After conclusion of the experiments, samples of organs from ARN2966 and Vehicle treated animals were subjected to histopathological evaluation conducted by a veterinary pathologist. […] Signs of mild chronic peritonitis related to repeated daily intraperitoneal compound injection, however, were reported in both groups.

Data set [4] concerns Aβ40. Nature of the data set: Aβ40 secretion by primary hippocampal neurons derived from Tg2576 AD Tg mice. It counts as cell-based. The conditions noted are these: 10 μM, primary neuronal cultures from Tg2576 mice. The protocol: In addition to studying the effect of ARN4261 and ARN2966 on Aβ oligomerization and fibrillization, we have explored their properties in respect to the modulation of Aβ production using CHO clones stably transfected with WT human APP751 and double Swedish APP751 mutant (KM670/671NL). The results in FIGS. 3(A) and 3(B) show inhibitory effect of ARN4261 and ARN2966 on secretion of Aβ40 and Aβ42 by 751APPSW CHO cells exposed to ARN compounds for 48 hr. Values are expressed as % of Aβ40 and Aβ42 levels in conditioned media (CM) of untreated cells. FIG. 3(C) Concentrations of Aβ40 and Aβ42 in 751APPSWCHO cell CM under increasing concentrations of ARN2966. 751APPSWCHO cells secrete Aβ40 and Aβ42 in proportions 9:1, akin to the proportions of Aβ peptides produced by neurons. […] Aβ40 and Aβ42 levels were determined using sandwich ELISA where C-terminal specific anti Aβ40 and Aβ42 mAbs were used as capture Abs and biotinylated 4G8 as the detection Ab. […] We also confirmed that ARN2966 inhibited secretion of Aβ by primary neuronal cultures derived from Tg2576 AD Tg mice.

Data set [5] deals with APPSW/PS1dE9 mice. Nature of the data set: Memory testing: object recognition and 8-armed radial arm maze. Type of data set: in vivo. The conditions noted are these: 50 mg/kg/day ip, last three weeks of treatment. The protocol:
as §2
P<0.05, unpaired, two-tailed t-test. […] One session is given per day. […] Starting from day five, vehicle treated APPSW/PS1dE9mice were consistently making more errors than ARN2966 treated APPSW/PS1dE9 and non-Tg littermates. One-way ANOVA p<0.001.
During the last three weeks of treatment, animals were behaviorally tested using object recognition paradigm and the 8-armed radial arm maze, both of which measure memory capability. […] However, vehicle treated APPSW/PS1dE9 mice were incapable of discriminating between familiar and novel objects, as is characteristic of their phenotype.

The subject of data set [6] is Aβ plaques. The experiment in a line: Aβ plaque load and brain Aβ level after chronic treatment. Type of data set: in vivo, mice. The method, then: Female APPSW/PS1dE9 AD double transgenic (Tg) mice received daily intraperitoneal injections of ARN2966 (50 mg/kg) starting from the age of six months until the age of 10 months.
Following the course of ARN2966 treatment, animals were sacrificed, and the load of Thioflavin-S (Th-S) stained Aβ plaques (% of histological section area covered by plaques) was quantified in the brain cortex on serial coronal sections through the rostrocaudal axis of the right hemisphere as described by us [Sadowski 2004]. The left hemisphere was homogenized (1:10 weight/volume), and aliquots of the homogenate were used to measure the level of Aβ oligomers (Aggregated β-Amyloid ELISA Kit, [Invitrogen]) or subjected to formic acid (FA) extraction to determine total Aβ40 and Aβ42 brain levels via sandwich ELISAs discriminating C-terminal configuration of both peptides as described by us [Sadowski 2006]. […] Levels of FA extracted Aβ40 and Aβ42 were reduced by 82% (p<0.001) and 56% (p<0.001; FIG. 6C).
as §1

[7] abbreviates: 50 mg/kg/day ip, age six to ten months, ELISA.

Entries after “also recorded” stand apart in the source; their conditions may differ.

Regarding `Oc1ccccc1NCc1ccccn1` [ARN2966, 2-[(pyridine-2-ylmethyl)-amino]-phenol], the “APP, C99 and C83 signal in brain homogenate (western immunoblotting)” value in data set [1] is “evident reduction of APP, C99, and C83 signal”. In data set [1] (killed three hours after last injection), the “lowering of soluble Aβ40 (DEA extraction) in brain vs vehicle” value is reported as 39%. In addition, the “cell morphology by phase contrast microscopy” value in data set [2] was “restored normal cell morphology”. Further, the “rescue of cell death induced by H2O2” value in data set [2] (300 μM H2O2, increasing concentrations, MTT) is given as “rescue M17 neuroblastoma cell death”. The “rescue of cell death induced by MPP+” value in data set [2] (0.5 mM MPP+, increasing concentrations, MTT) is given as “rescue M17 neuroblastoma cell death”. In addition, in data set [3], the “body weight / weight gain” value is reported as “proper rate of age related weight gain”; the “histopathological evaluation of organs” value is given as “No signs of ARN2966 toxicity”; the “physical appearance, unprovoked behavior, response to external stimuli” value is listed as “no noticeable changes in physical appearance, unprovoked behavior or response to external stimuli”. Besides, the “lowering of Aβ40 concentration in the conditioned media” value in data set [4] worked out at 61.4%. Further, in data set [5], the object recognition test result was “spent significantly more time exploring the novel object; also recorded: able to distinguish a novel object from the familiar object” and the “radial arm maze, errors per session” value is “made fewer errors than vehicle group”. In addition, the “reduction in the Aβ load (unbiased quantification, Thioflavin-S)” value in data set [6] (50 mg/kg daily ip, age six to 10 months) was found to be 25.8%. Moreover, the “reduction of load of Th-S positive plaques in the brain cortex” value in data set [6] (50 mg/kg/day ip, age six to ten months) stood at 21.9%. Moreover, in data set [6] (setting [7]), the “reduction of FA extracted Aβ40 brain level” value is 82%, the “reduction of FA extracted Aβ42 brain level” value amounted to 56% and the “reduction of level of Aβ oligomers in brain homogenate” value is given as 20.5%.
